Experimental data published in patent publication US20200325505A1, “FILAMENTOUS FUNGI CAPABLE OF PRODUCING VERY LONG CHAIN FATTY ACIDS” (UT-Battelle, LLC, priority 2019, published 2020).
Residues, ends and D or L forms follow the SMILES beside them.

Experiments:
[1] = system: Mortierella elongata AG77; assay: Nitrogen source utilisation in Biolog 96-well plates, formazan formation after tetrazolium addition; assay type: cell-based; details: for Metabolized: Metabolized = more formazan formation than a control containing no nitrogen source, observed visually at 2 h, 24 h, 148 h; for Nitrogen sources that Mortierella elongata AG77 can metabolize: text summary of Table 4
Description: Two 300 mL volumes of growth medium comprising 1 g/L KH2PO4, 1 g/L MgSO4 7H2O, 0.1 g/L CaCl2, 0.02 g/L FeNaEDTA, 0.1 g/L NaCl, and either 1 g/L NH4NO3 or 20 g/L sucrose were prepared. […] Aliquots of 200 μL of carbon-free medium or nitrogen-free medium were pipetted into each well of a set of 96-well plates previously prepared with lyophilized putative carbon or nitrogen sources (Biolog Inc., Hayward, Calif.). Inocula were prepared by perforating a culture of Mortierella elongata AG77 grown on 20 g/L potato dextrose agar with a 3 mm diameter cork borer and separating the surface mycelial mat from the solid growth medium using tweezers. Each well was inoculated with one inoculum. Cultures were incubated at 21° C. for 24 hours to allow metabolic changes to stabilize, and then 100 μL of 3 g/L tetrazolium chloride in water was added to each well.
Conclusions were based on rate and intensity of formazan formation using the 3-(4,5-dimethylthiazol-2-yl)-2,5-diphenyltetrazolium bromide ([…]) assay. “Metabolized” indicates more formazan formation than a control containing no nitrogen source, and “Toxic” indicates less formazan formation than a control containing no nitrogen source, “Metabolized” and “Toxic” assignments are mutually exclusive. In this example, a compound may be “Metabolized” or “Toxic,” but not both.

[2] = system: Mortierella elongata AG77; assay: Carbon source utilisation in Biolog 96-well plates, formazan formation after tetrazolium addition; assay type: cell-based; details: for Metabolized: Metabolized = more formazan formation than a control containing no carbon source, observed visually at 2 h, 24 h, 148 h; for Carbon sources that Mortierella elongata AG77 can metabolize: summary of Table 3
Method in brief: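 Carbon- or nitrogen-free mineral medium (pH 5.5) was dispensed onto lyophilised carbon or nitrogen sources and inoculated with 3 mm mycelial plugs of M. elongata grown on PDA. After 24 h at 21 °C, tetrazolium chloride was added and formazan was scored visually at 2, 24 and 148 h against a no-carbon-source control.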

[3] = compound as nitrogen source, Toxic = less formazan formation than a control containing no nitrogen source
[4] = compound as carbon source, Toxic = less formazan formation than a control containing no carbon source

Row | Compound | Toxic [1] | Metabolized ([1]; compound as nitrogen source) | Nitrogen sources that Mortierella elongata AG77 can metabolize [1] | Toxic [2] | Metabolized ([2]; compound as carbon source) | Carbon sources that Mortierella elongata AG77 can metabolize [2] | Toxic [1, 3] | Toxic [2, 4]
1 | O=C(O)[C@@H]1CCCN1 [L-Proline] | no | yes | can metabolize | no | yes | can metabolize |  | 
2 | NCC(=O)O [Glycine] | no | yes | can metabolize | no | no |  |  | 
3 | NC(=O)[C@@H](O)[C@@H](O)[C@H](O)[C@@H](O)C=O [Glucuronamide] |  | no |  |  | yes | can metabolize | no | no
4 | N=C(N)NCCC[C@H](N)C(=O)O [L-Arginine] | no | no |  | no | yes | can metabolize |  | 
5 | NCCCCC(=O)O [δ-Amino Valeric Acid] | no | no |  | no | no |  |  | 
6 | NCCCCN [Putrescine] | no | no |  | no | yes | can metabolize |  | 
7 | OC[C@H]1O[C@@H](n2cnc3c(O)ncnc32)[C@H](O)[C@@H]1O [Inosine] |  | no |  |  | yes | can metabolize | no | no
8 | N[C@@H](CC(=O)O)C(=O)O [L-Aspartic Acid] | no | no |  | no | yes | can metabolize |  | 
9 | NCCc1ccc(O)cc1 [Tyramine] | no | no |  | no | yes | can metabolize |  | 
10 | N[C@H]1C(O)O[C@H](CO)[C@@H](O)[C@@H]1O (stereo partly drawn) [D-Glucosamine] | no | no |  | no | yes | can metabolize |  | 
11 | NCCCC[C@H](N)C(=O)O [L-Lysine] | no | no |  | no | no |  |  | 
12 | C[C@@H](N)C(=O)O [D-Alanine] | no | yes | can metabolize | no | yes | can metabolize |  | 
13 | CC(=O)N[C@H]1C(O)O[C@H](CO)[C@H](O)[C@@H]1O (stereo partly drawn) [N-Acetyl-D-Galactosamine] |  | yes | can metabolize |  | no |  | no | no
14 | Cc1cn([C@H]2C[C@H](O)[C@@H](CO)O2)c(=O)[nH]c1=O [Thymidine] | no | no |  | no | no |  |  | 
15 | NCCO [2-Aminoethanol] |  | no |  |  | yes | can metabolize | no | no
16 | NC(=O)C[C@H](N)C(=O)O [L-Asparagine] | no | no |  | yes | no |  |  | 
17 | CC(=O)N[C@@H](CCC(=O)O)C(=O)O [N-Acetyl-L-Glutamic Acid] | no | no |  | no | yes | can metabolize |  | 
18 | C[C@H](N)C(=O)O [L-Alanine] | no | yes | can metabolize | no | no |  |  | 
19 | CSCC[C@H](N)C(=O)O [L-Methionine] | no | no |  | no | no |  |  | 
20 | NCCc1ccccc1 [Phenylethyl-amine] |  | no |  |  | no |  | no | no
21 | CC[C@H](C)[C@H](N)C(=O)O [L-Isoleucine] | no | yes | can metabolize | no | no |  |  | 

Row | Compound | Toxic [1] | Metabolized ([1]; compound as nitrogen source) | Nitrogen sources that Mortierella elongata AG77 can metabolize [1] | Toxic [2] | Metabolized ([2]; compound as carbon source) | Carbon sources that Mortierella elongata AG77 can metabolize [2] | Toxic [1, 3] | Toxic [2, 4]
22 | N[C@@H](CCC(=O)O)C(=O)O [L-Glutamic Acid] |  | yes | can metabolize |  | no |  | no | no
23 | O=c1ccn([C@@H]2O[C@H](CO)[C@@H](O)[C@H]2O)c(=O)[nH]1 [Uridine] | no | no |  | no | no |  |  | 
24 | NCCCC(=O)O [γ-Amino Butyric Acid] | no | yes | can metabolize | no | no |  |  | 
25 | N[C@@H](CCO)C(=O)O [L-Homoserine] | no | yes | can metabolize | no | no |  |  | 
26 | N[C@@H](Cc1c[nH]cn1)C(=O)O [L-Histidine] | no | yes | can metabolize | no | no |  |  | 
27 | CC(C)C[C@H](N)C(=O)O [L-Leucine] | no | no |  | no | no |  |  | 
28 | N[C@H](CC(=O)O)C(=O)O [D-Aspartic Acid] | no | no |  | no | yes | can metabolize |  | 
29 | C[C@H](N)C(=O)NCC(=O)O [L-Alanyl-Glycine] (H-Ala-Gly-OH) | no | no |  | no | no |  |  | 
30 | C[C@@H](O)[C@H](N)C(=O)O [L-Threonine] | no | no |  | no | yes | can metabolize |  | 
31 | N[C@@H](Cc1ccccc1)C(=O)O [L-Phenylalanine] |  | no |  |  | yes | can metabolize | no | no
32 | N[C@@H](CO)C(=O)O [L-Serine] | no | no |  | no | no |  |  | 
33 | N[C@H](CO)C(=O)O [D-Serine] | no | no |  | no | no |  |  | 
34 | CC(=O)N[C@H]1C(O)O[C@H](CO)[C@@H](O)[C@@H]1O (stereo partly drawn) [N-Acetyl-D-Glucosamine] |  | yes | can metabolize |  | yes | can metabolize | no | no
35 | O=C1CC[C@@H](C(=O)O)N1 [L-Pyroglutamic Acid] | no | no |  | no | no |  |  | 
36 | CC(C)[C@H](N)C(=O)O [L-Valine] | no | no |  | no | no |  |  | 
37 | NC(=O)CC[C@H](N)C(=O)O [L-Glutamine] | no | yes | can metabolize | yes | no |  |  | 
38 | Nc1ncnc2c1ncn2[C@@H]1O[C@H](CO)[C@@H](O)[C@H]1O [Adenosine] | no | no |  | no | yes | can metabolize |  | 
39 | NCC(=O)N[C@@H](CCC(=O)O)C(=O)O [Glycyl-L-Glutamic Acid] (H-Gly-Glu-OH) |  | no |  |  | no |  | no | no
40 | CC(N)=O [Acetamide] |  | no |  |  | no |  | no | 
41 | CCCCCN [N-Amylamine] | no | no |  |  |  |  |  | 
42 | NCC(=O)N[C@@H](CC(N)=O)C(=O)O [Gly-Asn] (H-Gly-Asn-OH) |  | no |  |  |  |  | no | 
